According to PubChem BioAssay AID1259407 (Chemical Carcinogenesis Research Information System (CCRIS), 2018):
Activity calls are given as the source filed them. The rule behind the calls is not given here.

Test system: CCRIS mutagenicity, Ames/micronucleus/aberration tests
Assay: CCRIS mutagenicity studies
[1] = Test System: AMES SALMONELLA TYPHIMURIUM, Strain/Indicator: TA98, Metabolic Activation: NONE, Method: PREINCUBATION
[2] = Test System: AMES SALMONELLA TYPHIMURIUM, Strain/Indicator: TA98, Metabolic Activation: NONE, Method: STANDARD PLATE
[3] = Test System: AMES SALMONELLA TYPHIMURIUM, Strain/Indicator: TA98, Metabolic Activation: RAT, LIVER, S-9, AROCLOR 1254, Method: STANDARD PLATE
[4] = Test System: AMES SALMONELLA TYPHIMURIUM, Strain/Indicator: TA100, Metabolic Activation: NONE, Method: PREINCUBATION
[5] = Test System: AMES SALMONELLA TYPHIMURIUM, Strain/Indicator: TA100, Metabolic Activation: NONE, Method: STANDARD PLATE
[6] = Test System: AMES SALMONELLA TYPHIMURIUM, Strain/Indicator: TA100, Metabolic Activation: RAT, LIVER, S-9, AROCLOR 1254, Method: STANDARD PLATE

Which results are given for `COC(=O)c1ccc(C(=O)OC)cc1`?
mutagenic call (End Point: IN VITRO CHROMOSOMAL ABERRATIONS, Test System: CHO-LB CELLS, Metabolic Activation: NONE): inactive; negative; mutagenic call (End Point: IN VITRO CHROMOSOMAL ABERRATIONS, Test System: CHO-LB CELLS, Metabolic Activation: RAT, LIVER, S-9, AROCLOR 1254): inactive; negative; mutagenic call (Test System: AMES SALMONELLA TYPHIMURIUM, Strain/Indicator: TA98, Metabolic Activation: HAMSTER, LIVER, S-9, AROCLOR 1254 (10%), Method: PREINCUBATION): inactive; negative; mutagenic call [1]: inactive; negative; mutagenic call [2]: inactive; negative; mutagenic call (Test System: AMES SALMONELLA TYPHIMURIUM, Strain/Indicator: TA98, Metabolic Activation: RAT LIVER S-9, AROCLOR 1254, Method: STANDARD PLATE): inactive; negative; mutagenic call (Test System: AMES SALMONELLA TYPHIMURIUM, Strain/Indicator: TA98, Metabolic Activation: RAT LIVER S-9, PHENOBARBITAL AND BETA-NAPHTHOFLAVONE, Method: PREINCUBATION): inactive; negative; mutagenic call (Test System: AMES SALMONELLA TYPHIMURIUM, Strain/Indicator: TA98, Metabolic Activation: RAT, LIVER, S-9, AROCLOR 1254 (10%), Method: PREINCUBATION): inactive; negative; mutagenic call [3]: inactive; negative; mutagenic call (Test System: AMES SALMONELLA TYPHIMURIUM, Strain/Indicator: TA98, Metabolic Activation: S-9, Method: STANDARD PLATE): inactive; negative; mutagenic call (Test System: AMES SALMONELLA TYPHIMURIUM, Strain/Indicator: TA100, Metabolic Activation: HAMSTER, LIVER, S-9, AROCLOR 1254 (10%), Method: PREINCUBATION): inactive; negative; mutagenic call [4]: inactive; negative; mutagenic call [5]: inactive; negative; mutagenic call (Test System: AMES SALMONELLA TYPHIMURIUM, Strain/Indicator: TA100, Metabolic Activation: RAT LIVER S-9, AROCLOR 1254, Method: STANDARD PLATE): inactive; negative; mutagenic call (Test System: AMES SALMONELLA TYPHIMURIUM, Strain/Indicator: TA100, Metabolic Activation: RAT LIVER S-9, PHENOBARBITAL AND BETA-NAPHTHOFLAVONE, Method: PREINCUBATION): inactive; negative; mutagenic call (Test System: AMES SALMONELLA TYPHIMURIUM, Strain/Indicator: TA100, Metabolic Activation: RAT, LIVER, S-9, AROCLOR 1254 (10%), Method: PREINCUBATION): inactive; negative; mutagenic call [6]: inactive; negative; mutagenic call (Test System: AMES SALMONELLA TYPHIMURIUM, Strain/Indicator: TA100, Metabolic Activation: S-9, Method: STANDARD PLATE): inactive; negative; mutagenic call (Test System: AMES SALMONELLA TYPHIMURIUM, Strain/Indicator: TA102, Metabolic Activation: NONE, Method: STANDARD PLATE): inactive; negative; mutagenic call (Test System: AMES SALMONELLA TYPHIMURIUM, Strain/Indicator: TA102, Metabolic Activation: S-9, Method: STANDARD PLATE): inactive; negative; mutagenic call (Test System: AMES SALMONELLA TYPHIMURIUM, Strain/Indicator: TA1535, Metabolic Activation: HAMSTER, LIVER, S-9, AROCLOR 1254 (10%), Method: PREINCUBATION): inactive; negative; mutagenic call (Test System: AMES SALMONELLA TYPHIMURIUM, Strain/Indicator: TA1535, Metabolic Activation: NONE, Method: PREINCUBATION): inactive; negative; mutagenic call (Test System: AMES SALMONELLA TYPHIMURIUM, Strain/Indicator: TA1535, Metabolic Activation: NONE, Method: STANDARD PLATE): inactive; negative; mutagenic call (Test System: AMES SALMONELLA TYPHIMURIUM, Strain/Indicator: TA1535, Metabolic Activation: RAT LIVER S-9, AROCLOR 1254, Method: STANDARD PLATE): inactive; negative; mutagenic call (Test System: AMES SALMONELLA TYPHIMURIUM, Strain/Indicator: TA1535, Metabolic Activation: RAT LIVER S-9, PHENOBARBITAL AND BETA-NAPHTHOFLAVONE, Method: PREINCUBATION): inactive; negative; mutagenic call (Test System: AMES SALMONELLA TYPHIMURIUM, Strain/Indicator: TA1535, Metabolic Activation: RAT, LIVER, S-9, AROCLOR 1254 (10%), Method: PREINCUBATION): inactive; negative; mutagenic call (Test System: AMES SALMONELLA TYPHIMURIUM, Strain/Indicator: TA1535, Metabolic Activation: RAT, LIVER, S-9, AROCLOR 1254, Method: STANDARD PLATE): inactive; negative; mutagenic call (Test System: AMES SALMONELLA TYPHIMURIUM, Strain/Indicator: TA1535, Metabolic Activation: S-9, Method: STANDARD PLATE): inactive; negative; mutagenic call (Test System: AMES SALMONELLA TYPHIMURIUM, Strain/Indicator: TA1537, Metabolic Activation: HAMSTER, LIVER, S-9, AROCLOR 1254 (10%), Method: PREINCUBATION): inactive; negative; mutagenic call (Test System: AMES SALMONELLA TYPHIMURIUM, Strain/Indicator: TA1537, Metabolic Activation: NONE, Method: PREINCUBATION): inactive; negative; mutagenic call (Test System: AMES SALMONELLA TYPHIMURIUM, Strain/Indicator: TA1537, Metabolic Activation: NONE, Method: STANDARD PLATE): inactive; negative; mutagenic call (Test System: AMES SALMONELLA TYPHIMURIUM, Strain/Indicator: TA1537, Metabolic Activation: RAT LIVER S-9, AROCLOR 1254, Method: STANDARD PLATE): inactive; negative; mutagenic call (Test System: AMES SALMONELLA TYPHIMURIUM, Strain/Indicator: TA1537, Metabolic Activation: RAT LIVER S-9, PHENOBARBITAL AND BETA-NAPHTHOFLAVONE, Method: PREINCUBATION): inactive; negative; mutagenic call (Test System: AMES SALMONELLA TYPHIMURIUM, Strain/Indicator: TA1537, Metabolic Activation: RAT, LIVER, S-9, AROCLOR 1254 (10%), Method: PREINCUBATION): inactive; negative; mutagenic call (Test System: AMES SALMONELLA TYPHIMURIUM, Strain/Indicator: TA1537, Metabolic Activation: RAT, LIVER, S-9, AROCLOR 1254, Method: STANDARD PLATE): inactive; negative; mutagenic call (Test System: AMES SALMONELLA TYPHIMURIUM, Strain/Indicator: TA1537, Metabolic Activation: S-9, Method: STANDARD PLATE): inactive; negative; mutagenic call (Test System: AMES SALMONELLA TYPHIMURIUM, Strain/Indicator: TA1538, Metabolic Activation: NONE, Method: PREINCUBATION): inactive; negative; mutagenic call (Test System: AMES SALMONELLA TYPHIMURIUM, Strain/Indicator: TA1538, Metabolic Activation: NONE, Method: STANDARD PLATE): inactive; negative; mutagenic call (Test System: AMES SALMONELLA TYPHIMURIUM, Strain/Indicator: TA1538, Metabolic Activation: RAT LIVER S-9, AROCLOR 1254, Method: STANDARD PLATE): inactive; negative; mutagenic call (Test System: AMES SALMONELLA TYPHIMURIUM, Strain/Indicator: TA1538, Metabolic Activation: RAT LIVER S-9, PHENOBARBITAL AND BETA-NAPHTHOFLAVONE, Method: PREINCUBATION): inactive; negative; mutagenic call (Test System: AMES SALMONELLA TYPHIMURIUM, Strain/Indicator: TA1538, Metabolic Activation: RAT, LIVER, S-9, AROCLOR 1254, Method: STANDARD PLATE): inactive; negative; mutagenic call (Test System: AMES SALMONELLA TYPHIMURIUM, Strain/Indicator: TA1538, Metabolic Activation: S-9, Method: STANDARD PLATE): inactive; negative; mutagenic call (Test System: E.COLI, Strain/Indicator: WP2UVRA, Metabolic Activation: NONE, Method: PREINCUBATION): inactive; negative; mutagenic call (Test System: E.COLI, Strain/Indicator: WP2UVRA, Metabolic Activation: RAT LIVER S-9, PHENOBARBITAL AND BETA-NAPHTHOFLAVONE, Method: PREINCUBATION): inactive; negative; mutagenic call (Test System: UDS HUMAN HELA CELLS, Strain/Indicator: THYMIDINE INCORPORATION, Metabolic Activation: NONE, Method: LIQUID SCINTILLATION COUNTING): inactive; negative

Which results are given for `Nc1ccc([N+](=O)[O-])cc1[N+](=O)[O-]`?
mutagenic call (End Point: IN VITRO CHROMOSOMAL ABERRATIONS, Test System: CHL CELLS, Metabolic Activation: NONE): inactive; negative; mutagenic call (End Point: IN VITRO CHROMOSOMAL ABERRATIONS, Test System: CHL CELLS, Metabolic Activation: RAT, LIVER, S-9, SODIUM PHENOBARBITAL AND 5,6-BENZOFLAVONE): active; positive (structural changes); mutagenic call (End Point: IN VITRO CHROMOSOMAL ABERRATIONS, Test System: HUMAN PERIPHERAL LYMPHOCYTES, Metabolic Activation: NONE): active; positive; mutagenic call [1]: active; positive; mutagenic call [2]: active; positive; mutagenic call [3]: active; positive; mutagenic call (Test System: AMES SALMONELLA TYPHIMURIUM, Strain/Indicator: TA98, Metabolic Activation: RAT, LIVER, S-9, KANECHLOR 500, Method: PREINCUBATION): active; positive; mutagenic call [4]: active; positive; mutagenic call [5]: inactive; negative; mutagenic call [6]: inactive; negative; mutagenic call (Test System: AMES SALMONELLA TYPHIMURIUM, Strain/Indicator: TA100, Metabolic Activation: RAT, LIVER, S-9, KANECHLOR 500, Method: PREINCUBATION): active; positive; mutagenic call (Test System: UDS RODENT HEPATOCYTES, Strain/Indicator: THY INCORP (NON-S-PHASE), Metabolic Activation: NONE, Method: AUTORADIOGRAPHY): inactive; negative
